By IC50 is commonly meant the point on the concentration scale where inhibition reaches its midpoint. The low end stands for greater potency in that assay, the high end for weaker potency in that assay.

Assay [1] can be described thus: Inhibitory concentration measured against the prostate cancer cell line DU145; IA:Inactive. Format: functional, cell-based, Homo sapiens. The conditions noted are these: cancer cell lines.
Assay [2] in a line: Inhibitory concentration measured against the prostate cancer cell line DU145. The assay is classed as functional, cell-based, Homo sapiens. The conditions noted are these: cancer cell lines.

For the molecule `COc1cc(C(=O)NCCN2CCCC(Cl)C2)c2cccc(C)c2c1` (stereo not drawn), in assay [1], the IC50 entry is reported as “Not Active”.

Regarding `COc1cc(C(=O)NCCN2CCCC(O)C2)c2cccc(C)c2c1` (stereo not drawn), in assay [1], the IC50 result is on record as “Not Active”.

Consider `COc1cc(C(=O)O[C@H](C(N)=O)[C@]2(C)CO2)c2cccc(C)c2c1`, for which the IC50 in assay [2] is 50 nM.

Values taken from ChEMBL document CHEMBL1144283, “Truncated azinomycin analogues intercalate into DNA” (Bioorg Med Chem Lett, 2005).
